Results: patent publication US8993117B2, “Devices with multiple surface functionality” (The Trustees of Princeton University, priority 2005, dated 2015)
Each block holds one molecule with its values, some of them ahead of it.

Experiments:
[1] = one week, cited from earlier work
[2] = Solvent rinsing and tape peel testing of coatings (IR/DRIFT); type: physicochemical; details: aerosol in THF, room temperature, no heating
Description: Coupons which had been treated were rinsed several times with deposition solvent and, where appropriate, ethanol and/or water, to remove soluble residues. A piece of tape (e.g., 3M red Scotch™ “650” tape or Scotch Masking Tape #234; 37 oz./in. adhesion to steel) was adhered to the derivatized surface of the solvent washed foil sample and quickly removed. The freshly “peeled” coupon was then analyzed again by DRIFT spectroscopy.
Samples of coupons of aluminum, iron, and titanium, prepared as described above, were treated with an aerosol of n-octadecanephosphonic acid in tetrahydrofuron (THF) at room temperature in the ambient environment. Following the spray application of the acid solution the solvent was allowed to evaporate at ambient temperature and the derivatized surfaces of the coupons were analyzed by FTIR. The surfaces where then washed with THF and analyzed both before and after a peel test using red Scotch™ “650” tape.

[3] = pH 7; cited from earlier work
[4] = Quartz crystal microbalance (QCM) surface coverage / loading of phosphonate coatings on Ti; type: physicochemical
[5] = Hydrolytic stability of DANSYL-RGDC labelled diphosphonate SAM by fluorimetry; type: physicochemical; details: after about 96 hours at pH 7.5, cleaved at about pH 12
Description: To further test the stability of diphosphonate SAMs towards aqueous conditions, fluorimetry was employed. Coupons of Ti-mPEG were then exposed to vapor of […] to yield the surface-bound complex. The complex modified coupons were then treated with a solution of 6-maleimidohexanoic acid in THF and were then rinsed thoroughly, and analyzed via IR (vCO≈1705 cm^−1). The coupons were then placed in a solution of N-(5-dimethylamino-1-naphthyl-sulfonyl)-RGDC (DANSYL-RGDC), then rinsed thoroughly, and probed via IR (vpeptide-CO≈1650-1690 cm^−1). The DANSYL group provides a fluorescent “tag” with which to monitor hydrolysis of the surface.
Fluorophore-labeled coupons were immersed in water at about pH 7.5. Fluorescence intensity of the supernatant was measured over about 90 hours; a calibration curve of DANSYL-RGDC was also prepared to relate concentrations in solution with fluorescence intensity, according to Beer's Law. […] Fluorescence intensity in the supernatant was measured against a second calibration curve of DANSYL-RGDC at about pH 12, and the solution concentration was determined by Beer's Law. […] At this point, the DANSYL-RGDC remaining on the surface was measured by exposing the coupon to strong alkaline (about pH 12) for about 3 hours to cleave any remaining zirconium complex species from the SAM. […]

αvβ3 integrins = αvβ3 integrins (Homo sapiens, UniProt P05106+P06756); details: cited from earlier work
Chain of αvβ3 integrins (P06756 31-1048): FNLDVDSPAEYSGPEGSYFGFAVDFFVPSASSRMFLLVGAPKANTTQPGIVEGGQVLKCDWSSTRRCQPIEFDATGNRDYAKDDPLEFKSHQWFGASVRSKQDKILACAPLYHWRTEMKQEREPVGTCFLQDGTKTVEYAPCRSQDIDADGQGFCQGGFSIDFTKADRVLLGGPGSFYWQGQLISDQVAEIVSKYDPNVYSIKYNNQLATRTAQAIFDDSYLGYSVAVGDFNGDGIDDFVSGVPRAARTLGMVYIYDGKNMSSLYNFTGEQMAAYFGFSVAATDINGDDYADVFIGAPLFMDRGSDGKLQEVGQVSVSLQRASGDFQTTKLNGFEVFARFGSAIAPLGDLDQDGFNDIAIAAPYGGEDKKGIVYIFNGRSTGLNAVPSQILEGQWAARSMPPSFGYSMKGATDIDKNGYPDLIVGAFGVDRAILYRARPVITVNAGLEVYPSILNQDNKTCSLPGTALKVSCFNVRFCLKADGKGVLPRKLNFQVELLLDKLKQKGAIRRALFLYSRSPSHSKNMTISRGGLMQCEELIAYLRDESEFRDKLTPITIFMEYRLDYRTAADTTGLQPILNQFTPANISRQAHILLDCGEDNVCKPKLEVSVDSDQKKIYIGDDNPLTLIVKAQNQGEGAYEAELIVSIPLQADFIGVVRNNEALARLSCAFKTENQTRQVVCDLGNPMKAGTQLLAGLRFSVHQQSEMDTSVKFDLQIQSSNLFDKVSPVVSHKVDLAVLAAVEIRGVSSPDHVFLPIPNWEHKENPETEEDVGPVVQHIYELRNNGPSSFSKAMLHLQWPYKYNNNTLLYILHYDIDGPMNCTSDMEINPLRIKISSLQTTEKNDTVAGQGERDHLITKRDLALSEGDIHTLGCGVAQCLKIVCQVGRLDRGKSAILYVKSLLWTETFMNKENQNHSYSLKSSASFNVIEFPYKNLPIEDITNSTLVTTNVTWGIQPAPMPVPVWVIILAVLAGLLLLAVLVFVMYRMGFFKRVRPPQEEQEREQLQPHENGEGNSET
Chain of αvβ3 integrins (P05106 27-788): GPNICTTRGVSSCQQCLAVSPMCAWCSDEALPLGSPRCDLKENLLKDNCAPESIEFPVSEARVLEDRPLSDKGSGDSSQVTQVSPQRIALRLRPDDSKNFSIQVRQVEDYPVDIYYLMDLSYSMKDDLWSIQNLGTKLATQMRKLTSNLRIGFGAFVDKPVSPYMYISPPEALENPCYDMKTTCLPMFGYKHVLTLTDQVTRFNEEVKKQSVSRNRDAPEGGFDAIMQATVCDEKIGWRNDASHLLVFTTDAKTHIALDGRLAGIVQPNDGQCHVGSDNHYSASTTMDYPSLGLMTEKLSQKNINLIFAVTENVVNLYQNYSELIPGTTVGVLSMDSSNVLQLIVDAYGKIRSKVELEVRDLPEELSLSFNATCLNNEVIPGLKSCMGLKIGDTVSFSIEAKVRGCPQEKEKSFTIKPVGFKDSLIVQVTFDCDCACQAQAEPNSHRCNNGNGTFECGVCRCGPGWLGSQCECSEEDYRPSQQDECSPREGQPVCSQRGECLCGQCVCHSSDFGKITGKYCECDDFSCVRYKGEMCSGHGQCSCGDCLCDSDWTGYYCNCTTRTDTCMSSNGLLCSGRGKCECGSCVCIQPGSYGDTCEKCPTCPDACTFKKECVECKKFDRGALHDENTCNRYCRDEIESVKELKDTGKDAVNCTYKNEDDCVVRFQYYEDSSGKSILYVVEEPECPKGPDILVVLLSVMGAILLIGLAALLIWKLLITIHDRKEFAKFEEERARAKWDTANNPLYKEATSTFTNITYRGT

Molecule: CCCCCCCCCCCCCCCCCC[Si](C)(C)Cl [octadecyldimethylchlorosilane]
Surface hydrolysis of coated powders (in words) [1]: almost total surface hydrolysis

Molecule: CCCCCCCCCCCCCCCCCCP(=O)(O)O [octadecylphosphonic acid]
Persistence of phosphonic acid layer after washing and peel test, aluminum native oxide [2]: survives washing, but not peel testing
Persistence of phosphonic acid layer after washing and peel test, iron native oxide [2]: survives both washing and peel testing
Persistence of phosphonic acid layer after washing, titanium native oxide [2]: readily removed by washing with the deposition solvent
Bound material lost from the surface of TiO2 ([1]; neutral pH): 16%
Bound material lost from the surface of ZrO2 ([1]; neutral pH): 5%

Molecule: (cyclo)-1,6 acetyl-CRGDF-penicillamine-NH2
Stability relative to linear RGDF [3]: 30 times

Molecule: Arg-Gly-Asp-Cys (RGDC; printed: Arg-Gly-Asp-Cys) [cysteine modified fibronectin cell attachment peptide]
RGDC loadings on SAMs of 11-hydroxyphosphonate on Ti [4]: ~0.52 nmol/cm^2

Surface loading of DANSYL-RGDC stable at about pH 7.5 [5]: about 0.58 nmol/cm^2
Molecule: N-(5-dimethylamino-1-naphthyl-sulfonyl)-RGDC [DANSYL-RGDC]

Molecule: cyclic (RGDFV-)
Specificity towards αvβ3 integrins relative to linear GRGDSPK (αvβ3 integrins): over 100 times
